We go through 17 compounds from PubChem BioAssay AID328 (DTP/NCI, 2004).

Values joined by “and” are separate entries in the source; they are usually repeats but may differ in a detail not shown here. Equal entries are not always repeated. Inconclusive results and toxic doses are left out. Non-standard residues stand in square brackets, D forms with d. Residues, ends and D or L forms follow the SMILES beside them. ξ: configuration not given here. *: point of attachment. ξPhe(4-N(CH2CH2Cl)2) = NC(Cc1ccc(N(CCCl)CCCl)cc1)C(=O)O; Boc = CC(C)(C)OC(=O)*; ξP = O=C(O)C1CCCN1

In the test the test system is BDF1 mice, P388 leukemia ip, median survival T/C. Put plainly: NCI In Vivo Anticancer Drug Screen. Data for tumor model P388 Leukemia (intraperitoneal) in B6D2F1 (BDF1) mice. Conditions: endpoint: median survival time, higher = longer survival. An outline of the steps:
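Compound-treated tumour-bearing mice were compared with vehicle-treated controls. Survival was recorded, and the value is the treated-group measurement divided by the control-group measurement (T/C).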

[1] abbreviates: dose: 50.0 mg/kg/injection, schedule: Q04DX003 (ip), vehicle: saline.
Setting [2] is: dose: 100.0 mg/kg/injection, schedule: Q01DX009 (ip), vehicle: saline.
The mark [3] stands for this setting: dose: 100.0 mg/kg/injection, schedule: Q04DX003 (ip), vehicle: saline.
[4] abbreviates: dose: 200.0 mg/kg/injection, schedule: Q01DX009 (ip), vehicle: saline.
[5] abbreviates: dose: 200.0 mg/kg/injection, schedule: Q04DX003 (ip), vehicle: saline.
[6] abbreviates: dose: 400.0 mg/kg/injection, schedule: Q01DX009 (ip), vehicle: saline.
Setting [7] is: dose: 400.0 mg/kg/injection, schedule: Q04DX003 (ip), vehicle: saline.
The mark [8] stands for this setting: dose: 50.0 mg/kg/injection, schedule: Q01DX009 (ip), vehicle: saline with Tween-80.
Where [9] appears, read: dose: 200.0 mg/kg/injection, schedule: Q01DX009 (ip), vehicle: saline with Tween-80.
[10] abbreviates: dose: 100.0 mg/kg/injection, schedule: Q01DX009 (ip), vehicle: Klucel (hydroxypropylcellulose) (HPC).
[11] abbreviates: dose: 100.0 mg/kg/injection, schedule: Q04DX003 (ip), vehicle: Klucel (hydroxypropylcellulose) (HPC).
The mark [12] stands for this setting: dose: 200.0 mg/kg/injection, schedule: Q01DX009 (ip), vehicle: Klucel (hydroxypropylcellulose) (HPC).
Where [13] appears, read: dose: 200.0 mg/kg/injection, schedule: Q04DX003 (ip), vehicle: Klucel (hydroxypropylcellulose) (HPC).
The mark [14] stands for this setting: dose: 400.0 mg/kg/injection, schedule: Q01DX009 (ip), vehicle: Klucel (hydroxypropylcellulose) (HPC).
[15] abbreviates: dose: 400.0 mg/kg/injection, schedule: Q04DX003 (ip), vehicle: Klucel (hydroxypropylcellulose) (HPC).
Setting [16] is: dose: 50.0 mg/kg/injection, schedule: Q04DX003 (ip), vehicle: saline with Tween-80.
Setting [17] is: dose: 25.0 mg/kg/injection, schedule: Q01DX009 (ip), vehicle: saline.

For the compound `CCOC(=O)C(Cc1ccc(N(CCCl)CCCl)cc1)NC(=O)C(Cc1ccccc1)NC(=O)C(NC(=O)CNC(=O)C1CCCN1)C(C)C` (stereo not drawn) (H-PGVF[ξPhe(4-N(CH2CH2Cl)2)]-OEt; configuration not given here), the T/C was 95 % of control (dose: 5.0 mg/kg/injection, schedule: Q04DX003 (ip), vehicle: water); 100 % of control (dose: 10.0 mg/kg/injection, schedule: Q04DX003 (ip), vehicle: water); 176 % of control (dose: 20.0 mg/kg/injection, schedule: Q04DX003 (ip), vehicle: water); 241 % of control (dose: 40.0 mg/kg/injection, schedule: Q04DX003 (ip), vehicle: water); 265 % of control (dose: 80.0 mg/kg/injection, schedule: Q04DX003 (ip), vehicle: water).
On to `CC1(C)c2ccccc2C(=O)C1Cc1ccccc1` (stereo not drawn), for which the T/C is 93 % of control (dose: 50.0 mg/kg/injection, schedule: Q01DX009 (ip), vehicle: saline); 109 % of control under setting [1]; 98 % of control under setting [2]; 119 % of control under setting [3]; 121 % of control under setting [4]; 119 % of control under setting [5]. The T/C runs as follows: under setting [6], 119 % of control; under setting [7], 109 % of control.
On to `O=C1CNC(=O)c2cc(N=Cc3cc(Br)ccc3O)ccc2N1`, for which the T/C was 99 % of control under setting [8]; 89 % of control (dose: 100.0 mg/kg/injection, schedule: Q01DX009 (ip), vehicle: saline with Tween-80); 100 % of control under setting [9].
Turning to `CCCN(CCC)c1ccc(/C=C/c2ccc3cc(OCC)ccc3n2)cc1`, the T/C reads like this: under setting [10], 100 % of control; under setting [11], 104 % of control; under setting [12], 100 % of control; under setting [13], 104 % of control; under setting [14], 90 % of control; under setting [15], 109 % of control.
For the compound `CC(C)CC(Br)C(=O)NCC(=O)NC(Cc1ccccc1)C(=O)O` (stereo not drawn), the T/C by setting is: under setting [16], 95 % of control; (dose: 100.0 mg/kg/injection, schedule: Q04DX003 (ip), vehicle: saline with Tween-80) 100 % of control; (dose: 200.0 mg/kg/injection, schedule: Q04DX003 (ip), vehicle: saline with Tween-80) 95 % of control.
Regarding `COC(=O)c1cc(=O)nc(N/N=C/c2ccc(C)cc2)s1`, the T/C reads like this: (dose: 50.0 mg/kg/injection, schedule: Q01DX005 (ip), vehicle: saline with Tween-80) 94 % of control; (dose: 100.0 mg/kg/injection, schedule: Q01DX005 (ip), vehicle: saline with Tween-80) 89 % of control; (dose: 200.0 mg/kg/injection, schedule: Q01DX005 (ip), vehicle: saline with Tween-80) 99 % of control.
As to `O/N=c1/cc(-c2ccc(Cl)cc2)ss1`, the T/C was 114 % of control under setting [17]; 100 % of control and 113 % of control under setting [1]; 106 % of control under setting [2]; 93 % of control and 106 % of control and 110 % of control under setting [3]; 92 % of control under setting [4]; 96 % of control and 102 % of control under setting [5]. Also, the T/C under setting [6] was 96 % of control; the T/C under setting [7] is 102 % of control; the T/C (dose: 600.0 mg/kg/injection, schedule: Q04DX003 (ip), vehicle: saline) is 90 % of control.
Take `CC(C)(C)OC(=O)NCC(=O)N1CCCC1C(=O)O` (stereo not drawn) (Boc-Gly-[ξP]-OH): the T/C runs as follows: (dose: 50.0 mg/kg/injection, schedule: Q01DX005 (ip), vehicle: saline) 92 % of control; (dose: 100.0 mg/kg/injection, schedule: Q01DX005 (ip), vehicle: saline) 90 % of control; (dose: 200.0 mg/kg/injection, schedule: Q01DX005 (ip), vehicle: saline) 100 % of control.
For the compound `CC(O)C1(O)C(O)CC(OC2c3cc4c(c(O)c3[C@@H]3C[C@@]2(C)OC32C=c3cc[nH]c3=N2)C(=O)c2cccc(O)c2C4=O)OC1C` (stereo partly drawn), the T/C (dose: 0.5 mg/kg/injection, schedule: Q01DX009 (ip), vehicle: saline with Tween-80) was 105 % of control; the T/C (dose: 0.5 mg/kg/injection, schedule: Q01DX009 (ip), vehicle: saline) is 103 % of control and 109 % of control; the T/C (dose: 1.0 mg/kg/injection, schedule: Q01DX009 (ip), vehicle: saline with Tween-80) was 119 % of control; the T/C (dose: 1.0 mg/kg/injection, schedule: Q01DX009 (ip), vehicle: saline) is 118 % of control and 124 % of control; the T/C (dose: 2.0 mg/kg/injection, schedule: Q01DX009 (ip), vehicle: saline with Tween-80) is 111 % of control; the T/C (dose: 2.0 mg/kg/injection, schedule: Q01DX009 (ip), vehicle: saline) was 111 % of control and 118 % of control. The T/C runs as follows: (dose: 4.0 mg/kg/injection, schedule: Q01DX009 (ip), vehicle: saline with Tween-80) 117 % of control; (dose: 8.0 mg/kg/injection, schedule: Q01DX009 (ip), vehicle: saline with Tween-80) 122 % of control.
Turning to `c1ccc(COc2ccccn2)cc1`, the T/C is 90 % of control (dose: 25.0 mg/kg/injection, schedule: Q04DX003 (ip), vehicle: Klucel (hydroxypropylcellulose) (HPC)); 95 % of control (dose: 50.0 mg/kg/injection, schedule: Q04DX003 (ip), vehicle: Klucel (hydroxypropylcellulose) (HPC)); 90 % of control under setting [11].
Turning to `C=CCCc1cc(OC)ccc1C(=O)C(C)C`, the T/C by setting is: under setting [8], 112 % of control; under setting [9], 119 % of control.
Consider `O=C1C=C(Nc2nc(O)cc(=O)[nH]2)c2ccccc2C1=O`, for which the T/C was 100 % of control (dose: 37.5 mg/kg/injection, schedule: Q01DX001 (ip), vehicle: Klucel (hydroxypropylcellulose) (HPC)); 100 % of control (dose: 75.0 mg/kg/injection, schedule: Q01DX001 (ip), vehicle: Klucel (hydroxypropylcellulose) (HPC)); 100 % of control (dose: 150.0 mg/kg/injection, schedule: Q01DX001 (ip), vehicle: Klucel (hydroxypropylcellulose) (HPC)); 95 % of control (dose: 150.0 mg/kg/injection, schedule: Q04DX003 (ip), vehicle: Klucel (hydroxypropylcellulose) (HPC)).
For the compound `CSC(=S)NNC(=O)c1ccc([N+](=O)[O-])cc1`, the T/C (dose: 3.13 mg/kg/injection, schedule: Q04DX003 (ip), vehicle: saline sonified) was 90 % of control; the T/C (dose: 6.25 mg/kg/injection, schedule: Q04DX003 (ip), vehicle: saline sonified) was 100 % of control; the T/C (dose: 12.5 mg/kg/injection, schedule: Q04DX003 (ip), vehicle: saline sonified) is 95 % of control.
On to `Nc1cc(C(F)(F)F)ccc1S(=O)(=O)O`, for which the T/C (dose: 100.0 mg/kg/injection, schedule: Q01DX001 (ip), vehicle: Klucel (hydroxypropylcellulose) (HPC)) was 100 % of control; the T/C (dose: 200.0 mg/kg/injection, schedule: Q01DX001 (ip), vehicle: Klucel (hydroxypropylcellulose) (HPC)) is 100 % of control; the T/C (dose: 400.0 mg/kg/injection, schedule: Q01DX001 (ip), vehicle: Klucel (hydroxypropylcellulose) (HPC)) was 100 % of control.
With `O=C(CC(c1ccccc1)c1ccccc1)c1ccccc1`, the T/C by setting is: under setting [10], 108 % of control; under setting [11], 120 % of control; under setting [12], 108 % of control; under setting [13], 110 % of control; under setting [14], 91 % of control; under setting [15], 120 % of control.
Consider `Cc1ccc2c3csc4ccccc4c-3nc2c1`, for which the T/C by setting is: (dose: 1.56 mg/kg/injection, schedule: Q01DX009 (ip), vehicle: saline) 113 % of control; (dose: 3.12 mg/kg/injection, schedule: Q01DX009 (ip), vehicle: saline) 113 % of control; (dose: 6.25 mg/kg/injection, schedule: Q01DX009 (ip), vehicle: saline) 113 % of control; (dose: 12.5 mg/kg/injection, schedule: Q01DX009 (ip), vehicle: saline) 100 % of control and 111 % of control; (dose: 18.0 mg/kg/injection, schedule: Q01DX009 (ip), vehicle: saline) 118 % of control; under setting [17], 104 % of control.
Turning to `CC(=O)OC(CC(O)(C(F)(F)F)C(F)(F)F)C(C)(C)C` (stereo not drawn), the T/C is 90 % of control (dose: 12.5 mg/kg/injection, schedule: Q04DX003 (ip), vehicle: saline with Tween-80); 90 % of control (dose: 25.0 mg/kg/injection, schedule: Q04DX003 (ip), vehicle: saline with Tween-80); 90 % of control under setting [16].
